According to doi:10.1101/2025.03.13.643086, “Granzyme-targeting quenched activity-based probes for assessing tumor response to immunotherapy” (bioRxiv, 2025):

Legend:
[1] = system: GzmB activity in NK-92 cells; assay: Flow cytometry analysis of protein labeling by ABPs in NK-92 and MDA-MB-231 cells; format: cell-based, human; settings: 5 μM
Protocol: Figure 3. GzmB ABPs selectively label active GzmB in cells. (A) Gel-based analysis of GzmB labeling by ABPs in NK-92 cells. 5x10^5 NK-92 cells were incubated with each ABP at varying concentrations for 2 h at 37 °C. After cell lysis, protein samples were analyzed by SDS-PAGE and in-gel fluorescence scanning for Cy5 signal. Expression of GzmB was confirmed by western blotting. (B) Gel-based analysis of GzmB labeling by qABP 10 in different cells. 2x10^6 NK-92, MDA-MB-231, Jurkat, and HEK cells were incubated with compound 10 (5 μM) at 37 °C for 2 h. After cell lysis, protein samples were analyzed by SDS-PAGE and in-gel fluorescence scanning for Cy5 signal. […] Protein samples were analyzed by SDS-PAGE and in-gel fluorescence scanning for Cy5 signal. […] Top: Histogram; Bottom: Mean fluorescence intensity (MFI) in MDA-MB-231 cells. […]
Histogram of flow cytometry data for NK-92 cells incubated with qABP 10. Right: Quantification of mean Cy5 fluorescence intensity. […]
3-5 mice/group. For all studies, mice were monitored by daily observation and serial tumor measurements and body weights.
Mice were treated with 20 mg/kg BEC i.v., 10 mg/kg anti-PD1 i.p., 5 mg/kg anti-CTLA4 i.p. or a combination of 10 mg/kg anti-PD-1 and 5 mg/kg anti-CTLA4. […] On day 9 post-treatment, the mice were injected with 2 nmol/g GzmB qABP i.v., followed by fluorescence imaging at 2, 4, 8, and 24 h. […]

[2] = Hydrolytic stability of qABPs in media (Cy5 fluorescence over time); format: physicochemical; settings: cell culture media (10% FBS), 24 h incubation
Protocol: Supplementary Figure 1. E-2B-0B-2Quenching effect and stability of qABP 10. (A) The fluorescence for each probe (10 µM) was measured at Ex/Em: 640/670 nm. (B) The stability of qABP 10 in PBS and different cell culture media (supplemented with 10% FBS) was measured by monitoring the production of Cy5 fluorescence signal over time.
11 CO2- In-gel fluorescence: Cy5
Supplementary Figure 2. (A) Chemical structure of compound 11. (B) hGzmB labeling assay with 11. Recombinant human active GzmB (50 nM) was incubated with 8 or 11 (500 nM) for 1 h.
Protein samples were analyzed by SDS-PAGE and in-gel fluorescence scanning for Cy5 signal.
(1 picture or pasted object on this page, not shown here)
PBS RIPA Myelocult 17 In-gel fluorescence:
Supplementary Figure 8. Activity-based GzmA profiling. (A) Left: Dose-dependent labeling of GzmA with 16 and 17 in NK-92 cell lysates. Middle, Right: GzmA selective labeling in different cell lysates with 17 (Middle) and 16 (Right) (50 nM, 1 h, 37 °C). Briefly, cell lysates were prepared with RIPA lysis buffer, and 20 µg of proteins were incubated with 50 nM of 16 or 17 for 1 h at 37 °C and analyzed by SDS-PAGE. […]
dependent in situ labeling of GzmA in NK-92 cells with 14-17 (2 h, 37 °C). […] After denaturing with 4X SDS-reducing buffer, 20 µg of proteins were analyzed by SDS-PAGE and in-gel fluorescence scanning for Cy5 signal. […]

CC[C@H](C)[C@H](NC(=O)CCCCCN1/C(=C/C=C/C=C/C2=[N+](CC)c3ccc(S(=O)(=O)O)cc3C2(C)C)C(C)(C)c2cc(S(=O)(=O)O)ccc21)C(=O)N[C@@H](CCC(=O)O)C(=O)N1CCC[C@H]1C(=O)NC(CS(=O)(=O)O)P(=O)(Oc1ccc(CCNC(=O)C2CCN(S(=O)(=O)c3ccccc3-c3c4ccc(=[N+]5CCc6ccccc65)cc-4oc4cc(N5CCc6ccccc65)ccc34)CC2)cc1)c1ccccc1 (stereo partly drawn) [Compound 10, Cy5-IEPCya^PhP-QSY21]
fluorescence intensity in NK-92 cells relative to GzmB non-expressing MDA-MB-231 cells [1]: approximately 9.1 fold
signal-to-noise (S/N), NK-92 vs MDA-MB-231 cells ([1]; 37 °C, 2 h): 9.09
hydrolyzed product [2]: less than 50%
